Assays:
Carrageenan paw edema = assay: Systemic antiinflammatory effect following subcutaneous administration: Carrageenan paw edema in rats; type: in vivo, rat; details: for Increase in volume: 6 hours after carrageenan, control 0.58 ± 0.16; for systemic activity: summary in words
From the text: 2 a) Examining for systemic antiinflammatory effect in the “antiinflammatory effect following subcutaneous administration: Carrageenan paw edema in rats” test. The carrageenan paw edema test in rats in accordance with the method described by Winter et al., Proc. Soc. exp. Biol. (New York) 111, 544 (1962) was chosen as the test for the acute systemic antiinflammatory effect. […] Controls were only given sesame oil. The paw volumes are given in ml, x±s.

gluconeogenesis = assay: Systemic effect: gluconeogenesis in adrenalectomized rats; details: for Glycogen + glucose mg/100 g of liver: 6 hours, control 11.2 ± 1.7; for effect on new formation of glucose and glycogen: t test against control
Protocol: 2 b) Examining for systemic effect: gluconeogenesis in rats
A sensitive method for detecting systemic effects on carbohydrate metabolism is to examine the gluconeogenic effect of corticosteroids in the adrenalectomized rat.
Three days prior to the experiment, groups of in each case 6 rats are adrenalectomized under pentobarbital anesthesia and provided with 0.9% sodium chloride solution as drinking fluid. Two days later, i.e. 24 hours before initiating the experiment, the feed is removed in order to reduce the glycogen stores in the liver.
On the day of the experiment, the preparations under examination are administered subcutaneously, dissolved in sesame oil (2 ml/kg). Six hours later, the animals are decapitated, and in each case the liver is removed and 1 g thereof is taken up in 5 ml of 0.6 molar perchloric acid. After homogenization, the free glucose is measured in the supernatant from the centrifugation, while the centrifugation sediment (centrifugate; glycogen) is cleaved enzymically with amyloglucosidase, after which the glucose content is also measured in this fraction (Hexokinase method, Boehringer Mannheim).

rat croton oil ear edema = assay: Local antiinflammatory effect in rat croton oil ear edema following epicutaneous application; type: in vivo; details: for Inhibition in % / x ± s (mg), weight difference of treated and untreated ear disks: 4 h; for x ± s (mg), weight difference of treated and untreated ear disks: TPA irritant, control 21.2 ± 5.1; for local antiinflammatory effect: summary in words
Protocol: 1. Local antiinflammatory effect in rat croton oil ear edema following epicutaneous application […] The left ear remained untreated. […] The corticoids under examination were dissolved in this solution in the given final concentrations. Controls only received the TPA/solvent mixture. The animals were sacrificed using CO2 4 h after the epicutaneous treatment. Disks measuring 8 mm in diameter were punched out of the right (treated) and the left (untreated) ears and weighed immediately.

| Structure (SMILES) | Increase in volume (Carrageenan paw edema; 0.3 mg/kg s.c.) [mL] | Increase in volume (Carrageenan paw edema; 3.0 mg/kg s.c.) [mL] | systemic activity (Carrageenan paw edema) | Glycogen + glucose mg/100 g of liver (gluconeogenesis; 0.3 mg/kg s.c.) | effect on new formation of glucose and glycogen (gluconeogenesis; 0.3 mg/kg s.c.) | Glycogen + glucose mg/100 g of liver (gluconeogenesis; 3.0 mg/kg s.c.) | Inhibition in % (rat croton oil ear edema; 0.1 mg/ml epicutaneous) [%] | x ± s (mg), weight difference of treated and untreated ear disks (rat croton oil ear edema; 0.1 mg/ml epicutaneous) [mg] | Inhibition in % (rat croton oil ear edema; 0.3 mg/ml epicutaneous) [%] | x ± s (mg), weight difference of treated and untreated ear disks (rat croton oil ear edema; 0.3 mg/ml epicutaneous) [mg] | Inhibition in % (rat croton oil ear edema; 1.0 mg/ml epicutaneous) [%] | x ± s (mg), weight difference of treated and untreated ear disks (rat croton oil ear edema; 1.0 mg/ml epicutaneous) [mg] | local antiinflammatory effect (rat croton oil ear edema) |
| --- | --- | --- | --- | --- | --- | --- | --- | --- | --- | --- | --- | --- | --- |
| C[C@]12C=CC(=O)C=C1CC[C@@H]1[C@@H]2[C@@H](O)C[C@@]2(C)[C@H]1CC[C@]2(OC(=O)c1ccccc1)C(=O)COC(=O)Cc1ccccc1 [Compound I, prednisolone 17-benzoate 21-phenylacetic ester] | 0.46 ± 0.19 | 0.38 ± 0.15 | weak | 20.4 ± 11.7 n.s. mg/100 g of liver | still do not have any significant effect | 96.0 ± 26.2 mg/100 g of liver | 76 | 5.0 ± 3.1 | 85 | 3.1 ± 2.5 | 91 | 2.0 ± 1.4 | strong |
| C[C@H]1C[C@H]2[C@@H]3CCC4=CC(=O)C=C[C@]4(C)[C@@]3(F)[C@@H](O)C[C@]2(C)[C@@]1(OC(=O)c1ccccc1)C(=O)COC(=O)Cc1ccccc1 [Compound II, betamethasone 17-benzoate 21-phenylacetic ester] | 0.56 ± 0.09 | 0.45 ± 0.14 | weak | 10.8 ± 1.3 n.s. mg/100 g of liver | still do not have any significant effect | 81.2 ± 61.7 mg/100 g of liver | 67 | 7.0 ± 3.3 | 77 | 4.9 ± 3.3 | 95 | 1.1 ± 0.9 | strong |
| CCOC(=O)O[C@]1(C(=O)COC(=O)CC)CC[C@H]2[C@@H]3CCC4=CC(=O)C=C[C@]4(C)[C@H]3[C@@H](O)C[C@@]21C [Prednicarbate, prednisolone 17-ethyl carbonate 21-propionate, reference compound] | 0.36 ± 0.13 | 0.09 ± 0.08 | – | – | – | – | 75 | 5.2 ± 3.3 | 88 | 2.6 ± 2.4 | – | – | – |
